Measured values reported in publication PMC6895048, “4,5-Disubstituted 1,2,3-triazoles: Effective Inhibition of Indoleamine 2,3-Dioxygenase 1 Enzyme Regulates T cell Activity and Mitigates Tumor Growth” (Scientific Reports, 2019).

Key:
[1] = molecular target: T1, purified human IDO1 enzyme (Homo sapiens, UniProt P14902); experiment: IDO1 inhibition assay by the spectrometric method (pDMAB); type: biochemical; conditions: for IC50: purified human IDO1, spectrophotometric, mean of three independent assays, read-out: hIDO1 IC50; for fold stronger IDO1 inhibition than MMG-0358: similar experimental conditions
T1 construct: made in house; host or cells: Escherichia coli M15 (pQE30 vector with pREP4 plasmid)
Procedure, shortened: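 Inhibitors serially diluted from 100 µM to 32 nM, DMSO 0.02–2%. Reaction quenched with 30% (w/v) TCA and held 15 min at 65 °C. Kynurenine formed was detected with 2% (w/v) pDMAB by absorbance at 480 nm.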

[2] = molecular target: T2, IDO1 enzyme (ferric and deoxy-ferrous) (Homo sapiens, UniProt P14902); experiment: Binding analysis by UV-Vis spectroscopic measurement; conditions: for Soret band red-shift: both ferric-IDO1 and deoxy-ferrous-IDO1; for Q-band shift: deoxy-ferrous-IDO1, Q-band at 551 nm for only enzyme
T2 construct: made in house; host or cells: Escherichia coli M15 (pQE30 vector with pREP4 plasmid)
Method: Figure 4 Binding properties of the potent compounds. Absorption spectra of ferric-IDO1 (A) and deoxy-ferrous-IDO1 enzyme (B) in the absence and presence of the compounds (20 μM) in 100 mM phosphate buffer at pH 6.5. [IDO1] = 0.65 μM. The ferrous-deoxy reaction environment was generated by adding Na2S2O4 to the solution under N2 atmosphere. The binding isotherms were generated from the response unit (RU) at 60 sec (average of triplicate measurements) versus the concentration of the compounds. A solid line represents a theoretical curve constructed from Rmax and Kd values determined by nonlinear least-squares analysis of the isotherms (C). 20 mm HEPES buffer, pH 7.4, with 0.16 m KCl was used for all SPR measurements. […] The model structures were generated using MoleGro Virtual Docker, version 6.0. The oxygen and nitrogen atoms are shown in red and blue, respectively. Residues involved in interactions through hydrogen bond formation are shown using dashed lines (yellow). Images were generated using PyMol.
The efficacy of the compound’s direct binding to the enzyme active site was measured by UV-Vis spectroscopic analysis[26]–[28],[30]. All the measurements were performed at room temperature using 100 mM KPB (pH 6.5), purified hIDO1 enzyme (3 µM), and selected compounds (20 µM. The deoxy-reaction system was generated by injecting Na2S2O4 (~10-fold excess) into the solution pre-purged with N2 gas.

[3] = Serum binding by Trp-fluorescence quenching; type: in vitro ADME, human; conditions: qualitative; compared with compound 4i
Method: Tryptophan fluorescence measurements of the human serum were performed in the presence of compounds on a Fluoromax-4 spectrofluorometer at room temperature. For fluorescence measurements, 30 µL of 100% human serum and varying concentrations (0–220 µM) of compounds were incubated in 10 mM PBS buffer, pH 7.4. The solution was excited at 290 nm, and emission spectra were recorded from 300 to 560 nm. The resulting tryptophan emission spectra for each concentration of the compounds were plotted.

IDO1 [4] = molecular target: T3, IDO1 (Homo sapiens, UniProt P14902); experiment: Circular dichroism analysis of IDO1 enzyme; set-up: made in house; host or cells: Escherichia coli M15 (pQE30 vector with pREP4 plasmid)
Method: The Circular Dichroism (CD) spectra of the IDO1 enzyme in the absence or presence of compounds were recorded with a Jasco-810-spectropolarimeter according to the reported procedure[37],[38]. Samples of rIDO1 (2 μM) were prepared in 10 mM KPB buffer (pH 6.5) in a […] quartz cuvette. Spectra were recorded by varying the concentration of the compound (250 nM to 4 µM) using a 1 mL quartz cuvette of 1 cm path length with a Jasco J-1500 spectropolarimeter at 17 °C. Also the spectra were collected at a scan rate […] and 1 nm bandwidth from 200 nm to 260 nm with three times scan for averaging. All final spectra were corrected for buffer background CD signals. The % of the secondary structures of the IDO1 enzyme was analyzed using the inbuilt software of the instrument.

IDO1 [5] = molecular target: T3, IDO1; experiment: Determination of mode of enzyme inhibition (Lineweaver-Burk); type: biochemical; set-up: made in house; host or cells: Escherichia coli M15 (pQE30 vector with pREP4 plasmid); conditions: for Ki: Km = 59.76 µM and Kcat = 6.18 sec-1; for Mode of IDO1 inhibition: with respect to L-Trp
Method: The mode of IDO1 enzyme inhibition was measured according to the reported spectrophotometric method. The assay was performed by varying both tryptophan concentration from 50 to 150 µM and inhibitor concentration from 32 nM to 4 µM. The amount of formation of N-formylkynurenine was recorded at different time intervals. The mode of enzyme inhibition was determined from the plot of 1/V against 1/[S], where V is the initial rate of the enzymatic reaction and [S] is the L-Trp concentration.

T1 sequence (P14902 whole entry): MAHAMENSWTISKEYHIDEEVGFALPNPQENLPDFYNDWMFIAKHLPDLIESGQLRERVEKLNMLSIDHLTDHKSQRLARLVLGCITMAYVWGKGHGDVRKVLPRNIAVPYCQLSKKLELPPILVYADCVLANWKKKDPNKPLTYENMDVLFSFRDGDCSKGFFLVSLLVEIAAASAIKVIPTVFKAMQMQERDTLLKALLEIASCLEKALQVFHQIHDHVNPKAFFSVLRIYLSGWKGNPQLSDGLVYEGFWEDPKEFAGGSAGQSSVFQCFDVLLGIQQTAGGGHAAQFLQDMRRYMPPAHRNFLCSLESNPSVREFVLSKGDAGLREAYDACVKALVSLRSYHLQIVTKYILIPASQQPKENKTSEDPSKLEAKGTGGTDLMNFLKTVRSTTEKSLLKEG
T2 sequence (P14902 whole entry): as above
T3 sequence (P14902 whole entry): as above

Structure (SMILES)	IC50 [1] [nM]	Soret band red-shift [2]	Q-band shift [2]	% of Secondary structural elements, Beta (IDO1 [4]; compound 0.25 µM) [%]	% of Secondary structural elements, Helix (IDO1 [4]; compound 0.25 µM) [%]	% of Secondary structural elements, Random (IDO1 [4]; compound 0.25 µM) [%]	% of Secondary structural elements, Turn (IDO1 [4]; compound 0.25 µM) [%]	% of Secondary structural elements, Beta (IDO1 [4]; compound 0.5 µM) [%]	% of Secondary structural elements, Helix (IDO1 [4]; compound 0.5 µM) [%]	% of Secondary structural elements, Random (IDO1 [4]; compound 0.5 µM) [%]	% of Secondary structural elements, Turn (IDO1 [4]; compound 0.5 µM) [%]	% of Secondary structural elements, Beta (IDO1 [4]; compound 1 µM) [%]	% of Secondary structural elements, Helix (IDO1 [4]; compound 1 µM) [%]	% of Secondary structural elements, Random (IDO1 [4]; compound 1 µM) [%]	% of Secondary structural elements, Turn (IDO1 [4]; compound 1 µM) [%]	% of Secondary structural elements, Beta (IDO1 [4]; compound 2 µM) [%]	% of Secondary structural elements, Helix (IDO1 [4]; compound 2 µM) [%]	% of Secondary structural elements, Random (IDO1 [4]; compound 2 µM) [%]	% of Secondary structural elements, Turn (IDO1 [4]; compound 2 µM) [%]	% of Secondary structural elements, Beta (IDO1 [4]; compound 4 µM) [%]	other results
NS(=O)(=O)NCCNC(=O)c1n[nH]nc1-c1ccc(F)c(F)c1 [Compound 4k]	92 ± 12	5–8 nm	10–13 nm	3.6	26.8	34.3	35.3	0	30.6	31.2	38.2	0	28	33.9	38.1	0	23.8	46.0	30.2	0	inhibition at 4 µM ([1]; 4 μM compound): 71 to 86%; inhibition at 100 µM ([1]; 100 μM compound): 82 to 93%; fold stronger IDO1 inhibition than MMG-0358 [1]: 3 fold; interaction with human serum proteins (Trp-fluorescence quenching) [3]: more strongly; % of Secondary structural elements, Helix (IDO1 [4]; compound 4 µM): 29.1%; % of Secondary structural elements, Random (IDO1 [4]; compound 4 µM): 36.4%; % of Secondary structural elements, Turn (IDO1 [4]; compound 4 µM): 34.5%; Ki (IDO1 [5]): 98 ± 11 nM; Mode of IDO1 inhibition (IDO1 [5]): competitive
NC(=O)c1n[nH]nc1-c1ccc(F)c(F)c1 [Compound 3i]	111 ± 5	5–8 nm	10–13 nm	0	30.1	35.8	34.1	0	29.4	36.8	33.8	0	29.8	35.8	34.5	0	28.5	40.8	30.7	0	fold stronger IDO1 inhibition than MMG-0358 [1]: 3 fold; interaction with human serum proteins (Trp-fluorescence quenching) [3]: more strongly; % of Secondary structural elements, Helix (IDO1 [4]; compound 4 µM): 30.7%; % of Secondary structural elements, Random (IDO1 [4]; compound 4 µM): 60.4%; % of Secondary structural elements, Turn (IDO1 [4]; compound 4 µM): 8.9%; Ki (IDO1 [5]): 160 ± 15 nM; Mode of IDO1 inhibition (IDO1 [5]): competitive
CCOC(=O)c1n[nH]nc1-c1ccc(F)c(F)c1 [Compound 2i]	545 ± 29	5–8 nm	10–13 nm	0	28	37.9	34.1	0	28.7	36.1	35.2	0	30.2	33.5	36.3	0	30.5	33.8	35.7	0	interaction with human serum proteins (Trp-fluorescence quenching) [3]: more strongly; % of Secondary structural elements, Helix (IDO1 [4]; compound 4 µM): 30.5%; % of Secondary structural elements, Random (IDO1 [4]; compound 4 µM): 35.7%; % of Secondary structural elements, Turn (IDO1 [4]; compound 4 µM): 33.8%; Ki (IDO1 [5]): 241 ± 38 nM; Mode of IDO1 inhibition (IDO1 [5]): competitive
O=C(N/C(Cc1ccc(O)cc1)=N\O)c1n[nH]nc1-c1ccc(F)c(F)c1 [Compound 4i]	94 ± 4	5–8 nm	10–13 nm	0.7	27.8	37.6	33.9	0	28	38.1	33.9	0	27.6	40.6	31.8	0	29.8	42.6	27.6	0	% of Secondary structural elements, Helix (IDO1 [4]; compound 4 µM): 31.8%; % of Secondary structural elements, Random (IDO1 [4]; compound 4 µM): 38.8%; % of Secondary structural elements, Turn (IDO1 [4]; compound 4 µM): 29.4%; Ki (IDO1 [5]): 258 ± 22 nM; Mode of IDO1 inhibition (IDO1 [5]): competitive
